What was measured:
Purified diglycosidase = assay: Influence of free glucose on diglycosidase activity; format: biochemical, Penicillium multicolor IAM7153; details: isolated aglycon amount at glucose 0% and 0.5 hour = 100%
Procedure: Purified diglycosidase was diluted with 20 mM acetate buffer of pH 4.0 to prepare a 0.75 AU/mL enzyme solution.
With a glucose solution was mixed 10 μL of each 2 mM substrate solution described in Example 2, and 20 mM acetate buffer of pH 4.0 was added thereto to be a liquid volume of 210 μL. Further, 40 μL of the enzyme solution was added and reaction was carried out at a final liquid volume of 250 μL. Adjustment of the glucose solution to be added allows glucose to exist in the reaction mixture in the range of 0 to 20%. The reaction was carried out at 55° C. and the existence of isoflavone glycosides and aglycon isoflavones was detected by HLPC at 0, 0.5, 1, and 3 hours of the reaction.

Crude diglycosidase = assay: Examination of pH in the conversion into isoflavone aglycons by diglycosidase using soybean materials; format: biochemical, Penicillium multicolor IAM7153; design: Decomposition efficiency of genistin family in soymilk / Decomposition efficiency of genistin family in defatted soybean / Decomposition efficiency of daidzin family in defatted soybean: concentration or dose not given beside the values; details: for Decomposition efficiency of daidzin family in roasted soy flour: 55° C.
Method in brief: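 HPLC detection of isoflavone glycosides and aglycons after ethanol quench at 0, 1, 3 and 6 h. Reactions ran at 55° C over pH 2–11, with crude diglycosidase (enzyme solution at 1.88 AU/mL) added to suspended roasted soy flour, soymilk, defatted soybean or concentrated soy protein.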

[1] = pH4.8, heat treatment of enzyme: no, reaction time 0 h
[2] = pH4.8, heat treatment of enzyme: no, reaction time 1 h
[3] = pH4.8, heat treatment of enzyme: no, reaction time 3 h

O=C(O)CC(=O)OC[C@H]1O[C@@H](Oc2ccc3c(=O)c(-c4ccc(O)cc4)coc3c2)[C@H](O)[C@@H](O)[C@@H]1O [malonyldaidzin, 6″-O-malonyldaidzin]
Isolation of isoflavone aglycons by diglycosidase in presence of glucose (Purified diglycosidase; Glucose concentration 0 %): 100%
Isolation of isoflavone aglycons by diglycosidase in presence of glucose (Purified diglycosidase; Glucose concentration 2 %): 125.3%
Isolation of isoflavone aglycons by diglycosidase in presence of glucose (Purified diglycosidase; Glucose concentration 4 %): 132.1%
Isolation of isoflavone aglycons by diglycosidase in presence of glucose (Purified diglycosidase; Glucose concentration 8 %): 125.4%
Isolation of isoflavone aglycons by diglycosidase in presence of glucose (Purified diglycosidase; Glucose concentration 20 %): 98.1%
Decomposition efficiency of daidzin family in concentrated soybean protein (Crude diglycosidase; pH1.6, heat treatment of enzyme: no, reaction time 0 h): not detected
Decomposition efficiency of daidzin family in concentrated soybean protein (Crude diglycosidase; pH1.6, heat treatment of enzyme: no, reaction time 1 h): not detected
Decomposition efficiency of daidzin family in concentrated soybean protein (Crude diglycosidase; pH1.6, heat treatment of enzyme: no, reaction time 3 h): not detected
Decomposition efficiency of daidzin family in concentrated soybean protein (Crude diglycosidase; pH1.6, heat treatment of enzyme: no, reaction time 6 h): not detected
Decomposition efficiency of daidzin family in concentrated soybean protein (Crude diglycosidase; pH1.6, heat treatment of enzyme: yes, reaction time 6 h): not detected
Decomposition efficiency of daidzin family in roasted soy flour (Crude diglycosidase; pH2, heat treatment of enzyme no, reaction time 0 h): not detected
Decomposition efficiency of daidzin family in roasted soy flour (Crude diglycosidase; pH2, heat treatment of enzyme no, reaction time 1 h): not detected
Decomposition efficiency of daidzin family in roasted soy flour (Crude diglycosidase; pH2, heat treatment of enzyme no, reaction time 3 h): not detected
Decomposition efficiency of daidzin family in roasted soy flour (Crude diglycosidase; pH2, heat treatment of enzyme no, reaction time 6 h): not detected
Decomposition efficiency of daidzin family in roasted soy flour (Crude diglycosidase; pH2, heat treatment of enzyme yes, reaction time 6 h): not detected
Decomposition efficiency of daidzin family in soymilk (Crude diglycosidase; pH2.3, heat treatment of enzyme: no, reaction time 0 h): 55.1%
Decomposition efficiency of daidzin family in soymilk (Crude diglycosidase; pH2.3, heat treatment of enzyme: no, reaction time 1 h): 54.7%
Decomposition efficiency of daidzin family in soymilk (Crude diglycosidase; pH2.3, heat treatment of enzyme: no, reaction time 3 h): 51.1%
Decomposition efficiency of daidzin family in soymilk (Crude diglycosidase; pH2.3, heat treatment of enzyme: no, reaction time 6 h): 48.5%
Decomposition efficiency of daidzin family in soymilk (Crude diglycosidase; pH2.3, heat treatment of enzyme: yes, reaction time 6 h): 51.0%
Decomposition efficiency of daidzin family in defatted soybean (Crude diglycosidase; pH2.6, heat treatment of enzyme: no, reaction time 0 h): 41.0%
Decomposition efficiency of daidzin family in defatted soybean (Crude diglycosidase; pH2.6, heat treatment of enzyme: no, reaction time 1 h): 41.2%
Decomposition efficiency of daidzin family in defatted soybean (Crude diglycosidase; pH2.6, heat treatment of enzyme: no, reaction time 3 h): 41.8%
Decomposition efficiency of daidzin family in defatted soybean (Crude diglycosidase; pH2.6, heat treatment of enzyme: no, reaction time 6 h): 40.2%
Decomposition efficiency of daidzin family in defatted soybean (Crude diglycosidase; pH2.6, heat treatment of enzyme: yes, reaction time 6 h): 38.9%
Decomposition efficiency of daidzin family in concentrated soybean protein (Crude diglycosidase; pH2.7, heat treatment of enzyme: no, reaction time 0 h): not detected
Decomposition efficiency of daidzin family in concentrated soybean protein (Crude diglycosidase; pH2.7, heat treatment of enzyme: no, reaction time 1 h): not detected
Decomposition efficiency of daidzin family in concentrated soybean protein (Crude diglycosidase; pH2.7, heat treatment of enzyme: no, reaction time 3 h): not detected
Decomposition efficiency of daidzin family in concentrated soybean protein (Crude diglycosidase; pH2.7, heat treatment of enzyme: no, reaction time 6 h): not detected
Decomposition efficiency of daidzin family in concentrated soybean protein (Crude diglycosidase; pH2.7, heat treatment of enzyme: yes, reaction time 6 h): not detected
Decomposition efficiency of daidzin family in roasted soy flour (Crude diglycosidase; pH3, heat treatment of enzyme no, reaction time 0 h): not detected
Decomposition efficiency of daidzin family in roasted soy flour (Crude diglycosidase; pH3, heat treatment of enzyme no, reaction time 1 h): not detected
Decomposition efficiency of daidzin family in roasted soy flour (Crude diglycosidase; pH3, heat treatment of enzyme no, reaction time 3 h): not detected
Decomposition efficiency of daidzin family in roasted soy flour (Crude diglycosidase; pH3, heat treatment of enzyme no, reaction time 6 h): not detected
Decomposition efficiency of daidzin family in roasted soy flour (Crude diglycosidase; pH3, heat treatment of enzyme yes, reaction time 6 h): not detected
Decomposition efficiency of daidzin family in defatted soybean (Crude diglycosidase; pH3.4, heat treatment of enzyme: no, reaction time 0 h): 41.0%
Decomposition efficiency of daidzin family in defatted soybean (Crude diglycosidase; pH3.4, heat treatment of enzyme: no, reaction time 1 h): 39.4%
Decomposition efficiency of daidzin family in defatted soybean (Crude diglycosidase; pH3.4, heat treatment of enzyme: no, reaction time 3 h): 34.5%
Decomposition efficiency of daidzin family in defatted soybean (Crude diglycosidase; pH3.4, heat treatment of enzyme: no, reaction time 6 h): 29.0%
Decomposition efficiency of daidzin family in defatted soybean (Crude diglycosidase; pH3.4, heat treatment of enzyme: yes, reaction time 6 h): 37.1%
Decomposition efficiency of daidzin family in soymilk (Crude diglycosidase; pH3.5, heat treatment of enzyme: no, reaction time 0 h): 55.1%
Decomposition efficiency of daidzin family in soymilk (Crude diglycosidase; pH3.5, heat treatment of enzyme: no, reaction time 1 h): 35.6%
Decomposition efficiency of daidzin family in soymilk (Crude diglycosidase; pH3.5, heat treatment of enzyme: no, reaction time 3 h): 15.1%
Decomposition efficiency of daidzin family in soymilk (Crude diglycosidase; pH3.5, heat treatment of enzyme: no, reaction time 6 h): 7.4%
Decomposition efficiency of daidzin family in soymilk (Crude diglycosidase; pH3.5, heat treatment of enzyme: yes, reaction time 6 h): 49.1%
Decomposition efficiency of daidzin family in concentrated soybean protein (Crude diglycosidase; pH3.7, heat treatment of enzyme: no, reaction time 0 h): not detected
Decomposition efficiency of daidzin family in concentrated soybean protein (Crude diglycosidase; pH3.7, heat treatment of enzyme: no, reaction time 1 h): not detected
Decomposition efficiency of daidzin family in concentrated soybean protein (Crude diglycosidase; pH3.7, heat treatment of enzyme: no, reaction time 3 h): not detected
Decomposition efficiency of daidzin family in concentrated soybean protein (Crude diglycosidase; pH3.7, heat treatment of enzyme: no, reaction time 6 h): not detected
Decomposition efficiency of daidzin family in concentrated soybean protein (Crude diglycosidase; pH3.7, heat treatment of enzyme: yes, reaction time 6 h): not detected
Decomposition efficiency of daidzin family in roasted soy flour (Crude diglycosidase; pH4, heat treatment of enzyme no, reaction time 0 h): not detected
Decomposition efficiency of daidzin family in roasted soy flour (Crude diglycosidase; pH4, heat treatment of enzyme no, reaction time 1 h): not detected
Decomposition efficiency of daidzin family in roasted soy flour (Crude diglycosidase; pH4, heat treatment of enzyme no, reaction time 3 h): not detected
Decomposition efficiency of daidzin family in roasted soy flour (Crude diglycosidase; pH4, heat treatment of enzyme no, reaction time 6 h): not detected
Decomposition efficiency of daidzin family in roasted soy flour (Crude diglycosidase; pH4, heat treatment of enzyme yes, reaction time 6 h): not detected
Decomposition efficiency of daidzin family in defatted soybean (Crude diglycosidase; [1]): 40.7%
Decomposition efficiency of daidzin family in soymilk (Crude diglycosidase; [1]): 56.2%
Decomposition efficiency of daidzin family in defatted soybean (Crude diglycosidase; [2]): 40.5%
Decomposition efficiency of daidzin family in soymilk (Crude diglycosidase; [2]): 47.4%
Decomposition efficiency of daidzin family in defatted soybean (Crude diglycosidase; [3]): 36.7%
Decomposition efficiency of daidzin family in soymilk (Crude diglycosidase; [3]): 33.9%
Decomposition efficiency of daidzin family in defatted soybean (Crude diglycosidase; pH4.8, heat treatment of enzyme: no, reaction time 6 h): 30.5%

Reference: patent US7118895B2, “Process for producing aglycon by using diglycosidase and flavor-improved food containing the aglycon and converting agent to be used in the process” (Amano Enzyme Inc., priority 2000, dated 2006)
